Source: ChEMBL document CHEMBL1201862, “PubChem BioAssay data set” (2004)
Activity calls are given as the source filed them.

How the values were obtained:
[1] = target: Fructose-bisphosphate aldolase (Mycobacterium tuberculosis, UniProt P9WQA3); test: Fluorescence-based biochemical high throughput dose response assay for inhibitors of the fructose-bisphosphate aldolase (FBA) of M. tuberculosis.; assay type: functional
[2] = HEK293T cytotoxicity, dose response, cytotoxicity control for miR-122 modulator project, cell-based, inhibitor set, cherry-pick, set 2 (AID 720697); assay type: functional
[3] = Luminescence Cell-Based Dose Retest to Confirm Inhibitors of Cancer Stem Cells. [Related pubchem assays (depositor defined):AID2717, AID2721]; assay type: functional; conditions: Homo sapiens
H9c2 = test: cells; assay type: functional, cell-based; conditions: Rattus norvegicus, H9c2, Myocardium;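 note: confirmatory concentration-response retest of ultra-high-throughput screening hits for modulation of myocardial damage; cell death induced by hydrogen peroxide oxidative stress; compound pretreatment for 60 min then peroxide exposure for 2 h; potency is for protecting the cells against peroxide damage rather than for killing them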
[4] = HEK293T cell cytotoxicity, dose response, cytotoxicity control, CellTiter-Glo luminescence, cherry-picked samples, set 4 (AID 743441); assay type: functional, cell-based; conditions: HEK293
[5] = Vibrio cholerae quorum sensing activators (AID 686977); assay type: functional
Vero = test: Vero cell toxicity, dose response, cytotoxicity control, plate reader, cherry-pick samples (AID 687020); assay type: functional, cell-based; conditions: Chlorocebus sabaeus
A549 = test: A549 cell toxicity, dose response, cytotoxicity control, plate reader, cherry-pick samples (AID 687028); assay type: functional, cell-based; conditions: Homo sapiens
Paired box protein Pax-8 = Paired box protein Pax-8 (Homo sapiens, UniProt Q06710); test: inhibitors of PAX8-driven TPO luciferase reporter, dose response, RMG-I cells, cherry-pick (AID 687027); assay type: functional, cell-based;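 note: luciferase reporter driven by Pax8 target thyroperoxidase promoter measured by SteadyGlo luminescence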
Paired box protein Pax-8, sequence (Q06710 whole entry): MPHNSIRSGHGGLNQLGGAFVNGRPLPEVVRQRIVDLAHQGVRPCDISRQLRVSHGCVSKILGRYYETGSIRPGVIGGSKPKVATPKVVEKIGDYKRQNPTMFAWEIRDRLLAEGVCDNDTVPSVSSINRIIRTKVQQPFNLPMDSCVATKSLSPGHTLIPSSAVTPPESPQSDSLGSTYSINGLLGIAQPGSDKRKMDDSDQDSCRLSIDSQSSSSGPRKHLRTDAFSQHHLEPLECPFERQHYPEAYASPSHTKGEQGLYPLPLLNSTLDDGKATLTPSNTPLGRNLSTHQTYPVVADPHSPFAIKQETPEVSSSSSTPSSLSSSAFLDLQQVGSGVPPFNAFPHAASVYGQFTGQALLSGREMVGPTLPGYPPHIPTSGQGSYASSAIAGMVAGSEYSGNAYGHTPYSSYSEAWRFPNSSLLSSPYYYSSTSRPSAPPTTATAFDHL

[6] = NIH:OVCAR-3 ovarian cancer cell cytotoxicity, dose response, PAX8 inhibitor project, plate reader, dry powder samples (AID 743044); assay type: functional, cell-based
[7] = A549 cell cytotoxicity, dose response, cytotoxicity control, plate reader, cherry-pick, antagonist series (AID 743412); assay type: functional, cell-based
[8] = HepG2 cell cytotoxicity, dose response, cytotoxicity control, plate reader, cherry-pick, antagonist series (AID 743416); assay type: functional, cell-based
[9] = IGROV1 ovarian cancer cell cytotoxicity, dose response, PAX8 inhibitor project, plate reader, dry powder samples (AID 743043); assay type: functional, cell-based; conditions: IGROV-1
[10] = LGR2 antagonists, dose response, cell-based, HEK293, CRE-luciferase reporter, cherry pick, set 2 (AID 743343); assay type: functional;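 note: transfected cells were stimulated with diluted bursicon conditioned medium after compound addition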
[11] = MC4R antagonists, dose response, counter-screen for LGR2 antagonist project, cell-based, plate reader, cherry pick (AID 743444); assay type: functional;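 note: transfected HEK 293 cells stimulated with alpha-MSH peptide; potency of inhibitors of the alpha-MSH evoked signal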
[12] = cytotoxicity in OVCAR8 ovarian cancer cells, dose response, PAX8 project, cell-based, plate reader, dry powder samples (AID 743197); assay type: functional; conditions: OVCAR-8
[13] = HEK293 cell cytotoxicity, dose response, cytotoxicity control, plate reader, cherry-picked samples (AID 743446); assay type: functional, cell-based
Cryptococcus neoformans [14] = test: PubChem AID 686997; assay type: functional, organism-based; conditions: Cryptococcus neoformans
Cryptococcus neoformans [15] = test: Cryptococcus growth inhibition by alamar blue – cell lysis, cherry-picks, replicate tests, mechanism study for C. neoformans antifungal project, dose response (AID 686999); assay type: functional, organism-based
[16] = HEK293 cell viability, dose response, counter-screen for EBV LMP1 inhibitor project, dry powder, set 2 (AID 624374); assay type: functional
[17] = LMP1-driven NF-kB reporter inhibition, dose response, cell-based, luciferase reporter, luminescence, dry powder, set 2 (AID 624376); assay type: functional
[18] = target: Induced myeloid leukemia cell differentiation protein Mcl-1 (Homo sapiens, UniProt Q07820); assay type: functional
Induced myeloid leukemia cell differentiation protein Mcl-1, sequence (Q07820 whole entry): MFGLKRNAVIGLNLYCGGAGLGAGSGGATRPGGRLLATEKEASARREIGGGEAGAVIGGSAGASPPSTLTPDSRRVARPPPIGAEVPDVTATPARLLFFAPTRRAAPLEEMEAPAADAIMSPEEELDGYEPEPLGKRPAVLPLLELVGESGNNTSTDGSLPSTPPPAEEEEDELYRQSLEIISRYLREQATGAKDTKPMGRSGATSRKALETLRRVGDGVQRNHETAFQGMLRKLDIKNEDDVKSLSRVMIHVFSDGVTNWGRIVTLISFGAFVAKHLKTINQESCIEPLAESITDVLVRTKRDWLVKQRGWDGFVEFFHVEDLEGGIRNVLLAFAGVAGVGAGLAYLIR

[19] = target: T1, Mannose-6-phosphate isomerase (Homo sapiens, UniProt P34949); test: human PMI inhibitors, high substrate, primary screen, biochemical, fluorescence intensity, high mannose 6-phosphate (AID 1220)
T1 sequence (P34949 whole entry): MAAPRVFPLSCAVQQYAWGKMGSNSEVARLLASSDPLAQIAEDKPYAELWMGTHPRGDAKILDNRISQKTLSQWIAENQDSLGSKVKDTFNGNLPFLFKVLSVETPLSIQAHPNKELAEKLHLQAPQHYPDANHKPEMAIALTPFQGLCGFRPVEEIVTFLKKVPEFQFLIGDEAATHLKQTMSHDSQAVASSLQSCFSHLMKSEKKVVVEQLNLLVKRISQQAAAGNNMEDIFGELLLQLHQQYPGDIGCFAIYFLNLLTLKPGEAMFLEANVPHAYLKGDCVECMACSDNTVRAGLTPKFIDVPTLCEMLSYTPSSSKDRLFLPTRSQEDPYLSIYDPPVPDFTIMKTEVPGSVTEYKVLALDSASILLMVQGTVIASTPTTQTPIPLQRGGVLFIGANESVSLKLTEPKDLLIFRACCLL

[20] = target: T2, Replicative DNA helicase DnaB (Mycobacterium tuberculosis, UniProt P9WMR3); test: DnaB intein splicing inhibitors, dose response, biochemical, cell-free fluorescence (AID 449749); assay type: functional
T2 sequence (P9WMR3 whole entry): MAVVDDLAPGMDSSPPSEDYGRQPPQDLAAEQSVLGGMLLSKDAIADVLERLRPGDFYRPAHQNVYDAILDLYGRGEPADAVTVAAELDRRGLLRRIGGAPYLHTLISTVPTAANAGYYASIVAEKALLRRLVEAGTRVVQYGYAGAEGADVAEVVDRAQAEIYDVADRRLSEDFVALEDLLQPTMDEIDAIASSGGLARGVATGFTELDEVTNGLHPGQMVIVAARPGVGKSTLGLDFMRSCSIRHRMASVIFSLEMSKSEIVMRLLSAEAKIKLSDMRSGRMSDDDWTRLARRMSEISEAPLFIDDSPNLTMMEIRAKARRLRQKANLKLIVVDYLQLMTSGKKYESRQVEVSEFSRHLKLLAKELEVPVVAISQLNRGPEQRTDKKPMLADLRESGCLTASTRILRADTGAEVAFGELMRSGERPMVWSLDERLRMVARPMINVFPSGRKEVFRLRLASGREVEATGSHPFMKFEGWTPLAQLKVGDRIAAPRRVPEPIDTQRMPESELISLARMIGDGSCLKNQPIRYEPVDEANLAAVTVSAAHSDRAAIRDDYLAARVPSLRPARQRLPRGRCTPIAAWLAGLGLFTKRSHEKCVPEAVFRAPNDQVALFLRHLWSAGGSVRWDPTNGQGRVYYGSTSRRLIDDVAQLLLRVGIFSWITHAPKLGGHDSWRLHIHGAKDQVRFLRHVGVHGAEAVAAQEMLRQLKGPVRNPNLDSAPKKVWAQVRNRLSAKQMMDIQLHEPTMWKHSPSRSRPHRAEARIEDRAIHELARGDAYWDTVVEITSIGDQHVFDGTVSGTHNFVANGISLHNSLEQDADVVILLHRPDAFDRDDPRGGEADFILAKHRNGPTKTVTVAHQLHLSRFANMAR

Protein RecA = target: T3, Protein RecA (Mycobacterium tuberculosis, UniProt P9WHJ3); test: Fluorescence Cell-Free Homogeneous Dose Retest to Identify Inhibitors of RecA-Intein Splicing Activity. [Related pubchem assays (depositor defined):AID2097, AID2223, AID489010, AID492950]; assay type: functional
T3 sequence (P9WHJ3 whole entry): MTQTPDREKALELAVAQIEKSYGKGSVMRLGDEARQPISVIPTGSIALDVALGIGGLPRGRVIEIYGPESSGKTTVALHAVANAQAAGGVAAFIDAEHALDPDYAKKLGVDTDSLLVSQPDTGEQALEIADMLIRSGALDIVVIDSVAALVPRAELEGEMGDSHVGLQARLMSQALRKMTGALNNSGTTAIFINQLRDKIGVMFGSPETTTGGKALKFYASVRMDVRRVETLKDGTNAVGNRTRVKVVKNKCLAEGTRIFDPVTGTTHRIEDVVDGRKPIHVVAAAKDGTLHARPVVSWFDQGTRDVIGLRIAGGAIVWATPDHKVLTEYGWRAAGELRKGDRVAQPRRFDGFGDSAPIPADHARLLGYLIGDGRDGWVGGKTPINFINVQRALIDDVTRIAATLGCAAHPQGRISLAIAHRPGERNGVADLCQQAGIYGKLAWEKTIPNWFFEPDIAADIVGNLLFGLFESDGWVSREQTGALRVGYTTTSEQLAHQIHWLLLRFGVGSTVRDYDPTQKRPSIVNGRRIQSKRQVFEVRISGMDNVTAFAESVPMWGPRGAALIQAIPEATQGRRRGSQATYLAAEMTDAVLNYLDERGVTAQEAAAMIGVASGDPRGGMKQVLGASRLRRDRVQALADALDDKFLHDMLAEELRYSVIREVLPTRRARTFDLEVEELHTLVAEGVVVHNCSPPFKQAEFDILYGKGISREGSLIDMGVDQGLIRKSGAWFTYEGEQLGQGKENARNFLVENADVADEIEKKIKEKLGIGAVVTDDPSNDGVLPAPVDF

Genome polyprotein = Genome polyprotein (dengue virus type 2, UniProt P29990); test: Dengue-2 NS5 methyltransferase inhibitors, primary screen, biochemical, confirmation dose response (AID 588689); assay type: functional
Genome polyprotein, sequence (P29990 2492-3391 limits assumed): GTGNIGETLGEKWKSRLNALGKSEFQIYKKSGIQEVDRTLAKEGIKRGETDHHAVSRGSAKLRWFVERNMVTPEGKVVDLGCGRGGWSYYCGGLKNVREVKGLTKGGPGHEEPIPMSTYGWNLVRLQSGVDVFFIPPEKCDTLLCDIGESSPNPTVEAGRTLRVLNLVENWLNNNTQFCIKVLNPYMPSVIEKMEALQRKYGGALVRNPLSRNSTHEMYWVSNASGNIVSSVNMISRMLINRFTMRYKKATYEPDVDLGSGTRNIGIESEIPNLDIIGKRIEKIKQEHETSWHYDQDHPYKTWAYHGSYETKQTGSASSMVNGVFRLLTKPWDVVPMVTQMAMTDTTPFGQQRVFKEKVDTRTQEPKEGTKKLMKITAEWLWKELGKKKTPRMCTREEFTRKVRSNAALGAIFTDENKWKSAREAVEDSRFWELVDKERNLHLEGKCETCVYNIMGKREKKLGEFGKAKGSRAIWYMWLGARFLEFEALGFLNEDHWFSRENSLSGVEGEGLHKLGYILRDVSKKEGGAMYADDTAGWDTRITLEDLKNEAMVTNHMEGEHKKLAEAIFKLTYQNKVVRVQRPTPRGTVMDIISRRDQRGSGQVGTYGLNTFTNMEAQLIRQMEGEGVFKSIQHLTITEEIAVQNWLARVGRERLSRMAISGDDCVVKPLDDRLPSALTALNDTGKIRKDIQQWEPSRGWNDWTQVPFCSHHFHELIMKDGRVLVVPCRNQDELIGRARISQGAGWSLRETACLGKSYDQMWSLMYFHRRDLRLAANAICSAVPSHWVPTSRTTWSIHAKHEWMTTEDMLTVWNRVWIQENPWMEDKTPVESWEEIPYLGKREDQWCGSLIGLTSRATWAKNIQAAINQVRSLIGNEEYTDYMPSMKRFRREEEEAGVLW

[21] = target: T4, Sentrin-specific protease 8 (Homo sapiens, UniProt Q96LD8); assay type: functional
T4 sequence (Q96LD8 whole entry): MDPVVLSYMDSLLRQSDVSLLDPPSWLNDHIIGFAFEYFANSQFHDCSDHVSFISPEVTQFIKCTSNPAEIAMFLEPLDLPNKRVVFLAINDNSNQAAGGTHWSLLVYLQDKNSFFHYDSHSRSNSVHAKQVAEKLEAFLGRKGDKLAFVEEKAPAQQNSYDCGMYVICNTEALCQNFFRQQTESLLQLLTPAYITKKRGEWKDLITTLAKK

[22] = target: T4, Sentrin-specific protease 8; assay type: functional; remark: listed apart in the source
Caspase-3 = target: T5, Caspase-3 (Homo sapiens, UniProt P42574); test: Dose-response confirmation of uHTS inhibitor hits of Sentrin-Specific Protease 8 in a Caspase-3 Fluorescence assay.; assay type: functional
T5 sequence (P42574 whole entry): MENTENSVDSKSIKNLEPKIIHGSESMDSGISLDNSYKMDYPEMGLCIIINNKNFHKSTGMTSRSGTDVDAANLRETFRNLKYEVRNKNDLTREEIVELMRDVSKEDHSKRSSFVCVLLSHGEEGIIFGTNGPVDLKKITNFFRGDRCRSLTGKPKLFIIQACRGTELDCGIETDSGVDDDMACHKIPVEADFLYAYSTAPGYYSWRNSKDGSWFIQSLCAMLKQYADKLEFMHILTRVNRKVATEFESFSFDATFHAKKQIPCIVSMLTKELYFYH

cells [23] = assay type: functional, cell-based
[24] = inhibitors of intracellular T. cruzi replication, confirmation, NIH3T3 host cells, beta-gal luminescence (AID 2044); assay type: functional, cell-based;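 note: intracellular parasites grown in NIH/3T3 mouse fibroblasts as host cells; luminescent beta-galactosidase reporter signal from transgenic T. cruzi replicating inside host cells; inhibitors lower the luminescence signal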
cells [25] = assay type: functional, cell-based; remark: listed apart in the source
[26] = cytotoxicity toward NIH3T3 fibroblasts, dose response, counter-screen, cell-based, ATP luminescence, mouse fibroblasts (AID 2010); assay type: functional;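 note: cells exposed to compound for about 90 hours before reading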
[27] = THP-1 cell cytotoxicity, dose response, cytotoxicity control for non-replicating M. tuberculosis project (AID 489025); assay type: functional
[28] = HepG2 cell cytotoxicity, dose response, cytotoxicity control for non-replicating M. tuberculosis project (AID 489018); assay type: functional; conditions: Mycobacterium tuberculosis
[29] = Vero E6 cell cytotoxicity, dose response, cytotoxicity control for non-replicating M. tuberculosis project, secondary assay (AID 492998); assay type: functional, VeroE6; conditions: Vero C1008
Albumin = Albumin (Bos taurus, UniProt P02769); test: Counterscreen for inhibitors of T-cell receptor (TCR)-CD3 interaction: Fluorescence-based biochemical high throughput dose response assay to identify inhibitors of T-cell receptor (TCR)-CD3 interaction using a TAMRA-labeled BSA probe.; assay type: functional
Albumin, sequence (P02769 whole entry): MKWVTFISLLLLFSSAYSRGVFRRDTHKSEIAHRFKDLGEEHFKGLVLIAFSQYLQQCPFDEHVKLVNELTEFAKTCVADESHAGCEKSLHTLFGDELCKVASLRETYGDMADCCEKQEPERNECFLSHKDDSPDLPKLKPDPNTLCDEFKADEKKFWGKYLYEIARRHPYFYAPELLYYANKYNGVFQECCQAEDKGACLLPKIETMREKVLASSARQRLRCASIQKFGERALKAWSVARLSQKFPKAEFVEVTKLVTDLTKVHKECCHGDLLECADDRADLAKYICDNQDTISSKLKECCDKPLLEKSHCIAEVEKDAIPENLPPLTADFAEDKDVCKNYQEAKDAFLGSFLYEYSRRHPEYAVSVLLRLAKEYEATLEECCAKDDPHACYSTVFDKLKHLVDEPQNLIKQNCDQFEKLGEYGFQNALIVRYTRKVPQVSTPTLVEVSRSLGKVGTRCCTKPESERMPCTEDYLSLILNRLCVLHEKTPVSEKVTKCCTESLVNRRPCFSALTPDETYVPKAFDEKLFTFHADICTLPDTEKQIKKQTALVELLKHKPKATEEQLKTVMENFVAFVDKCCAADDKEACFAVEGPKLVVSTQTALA

Fructose-bisphosphate aldolase, sequence (P9WQA3 whole entry): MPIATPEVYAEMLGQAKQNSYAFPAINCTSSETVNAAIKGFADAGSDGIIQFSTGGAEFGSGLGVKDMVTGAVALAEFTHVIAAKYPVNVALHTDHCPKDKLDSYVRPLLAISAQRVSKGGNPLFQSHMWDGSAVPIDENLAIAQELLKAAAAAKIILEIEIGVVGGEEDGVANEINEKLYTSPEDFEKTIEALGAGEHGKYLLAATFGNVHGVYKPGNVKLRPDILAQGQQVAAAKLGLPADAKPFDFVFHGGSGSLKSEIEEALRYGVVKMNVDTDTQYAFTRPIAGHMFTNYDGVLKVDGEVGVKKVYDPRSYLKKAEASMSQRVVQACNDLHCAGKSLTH

In the case of `CC1=CC2=NCC(O)CN2C=C1` (configuration not stated), the IC50 [1] is reported as 5.11 µM (active).

For `O=C1NC(=O)N(CCC2=CCCCC2)C(=O)/C1=C\c1cccs1`, the AC50 [2] was 1.06 µM (active).

For `COc1ccc(-n2cc(-c3ccccc3)c3c(N4CCOCC4)ncnc32)cc1`, the AC50 [3] was 3.78 µM (active), the IC50 (H9c2) was > 79 µM (inactive) and the AC50 [4] was 48.5 µM (active).

For `O=C(Nc1ccc(F)cc1F)c1sccc1SCc1cccc(C(F)(F)F)c1`, the IC50 [5] was 77.9 µM (active).

For `COc1ccc(S(=O)(=O)N(CC(C)C)CC(C)C)c2cccnc12`, the AC50 (Vero) was 39 µM (active) and the AC50 (A549) was 19.5 µM (active).

For `COc1cccc(-c2ccc3c(c2)[C@H]2[C@H](CCN2C(=O)c2ccccc2F)[C@H](CO)N3C)c1`, the AC50 (Paired box protein Pax-8) was 8.72 µM (active), the AC50 [6] was 22.7 µM (active) and the AC50 [7] was 13.8 µM (active). For the same compound, the AC50 [8] was 24 µM (active), the AC50 [9] was 57.8 µM (active) and the AC50 [10] was 5.53 µM (active). The AC50 [11] was 7.07 µM (active), the AC50 [12] was 25.3 µM (active) and the AC50 [13] was 20.5 µM (active).

In the case of `COC(=O)C1=C(C)N(Cc2ccc(Cl)cc2)C(=S)NC1c1ccccc1` (configuration not stated), the AC50 (Cryptococcus neoformans [14]) is reported as 25.9 µM (active) and the AC50 (Cryptococcus neoformans [15]) is reported as 36.1 µM (active).

In the case of `COc1cccc(-c2cccc(-c3nc(C(=O)NCC(F)(F)F)cc4c3[C@H](CCO)N([S@@+]([O-])C(C)(C)C)C4)c2)c1`, the AbsAC35 [16] is reported as 43.43 µM and the AbsAC35 [17] is reported as 56.19 µM.

In the case of `Nc1scc2c(C(=O)N/N=C/c3ccc(Cl)cc3)nn(-c3ccccc3)c(=O)c12`, the IC50 [18] is reported as 1.95 µM (active), the IC50 [19] is reported as > 50 µM (not active) and the AC50 [20] is reported as 7.02 µM (active). The EC50 (Protein RecA) was 5.71 µM (active), the IC50 (Genome polyprotein) was 70.6 µM (active) and the IC50 [21] was 0.5 µM (active). For the same compound, the IC50 [22] was 0.577 µM (active) and the IC50 (Caspase-3) was 4.47 µM (active).

In the case of `O=C(N/N=C/c1cc(Br)cc(Br)c1O)c1cccc(N2CCCC2=O)c1`, the EC50 (cells [23]) is reported as 138 µM (active), the EC50 [24] is reported as 1.55 µM (active) and the EC50 (cells [25]) is reported as > 350 µM (not active). The EC50 [26] was > 60 µM (not active), the CC50 [27] was 15.2 µM (active) and the CC50 [28] was > 20 µM (active). The CC50 [29] was 15 µM (active) and the IC50 (Albumin) was > 94.1 µM (inactive).
